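Briefly, cells in 96-well plates were exposed to five compound concentrations for 48 h, and endpoints were estimated by linear interpolation. Here, GI50 denotes the concentration required for 50% inhibition of growth. TGI denotes the concentration required for complete inhibition of growth.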
How the values were obtained:
Assay in all cases: NCI anticancer screen, dose series, 48 h
HOP-62 NSCLC = test system: HOP-62 NSCLC
OVCAR-5 ovarian = test system: OVCAR-5 ovarian
SF-295 CNS = test system: SF-295 CNS
SF-539 CNS = test system: SF-539 CNS
SN12C renal = test system: SN12C renal
T-47D breast = test system: T-47D breast
U251 CNS = test system: U251 CNS
NCI-H522 lung = test system: NCI-H522 lung
SK-MEL-2 melanoma = test system: SK-MEL-2 melanoma

Row | Structure (SMILES) | TGI (HOP-62 NSCLC) [µM] | TGI (OVCAR-5 ovarian) [µM] | TGI (SF-295 CNS) [µM] | TGI (SF-539 CNS) [µM] | TGI (SN12C renal) [µM] | TGI (T-47D breast) [µM] | TGI (U251 CNS) [µM] | TGI (NCI-H522 lung) [µM] | TGI (SK-MEL-2 melanoma) [µM] | GI50 (U251 CNS) [µM]
1 | CC(=O)OC12c3ccccc3C(c3ccccc31)C1C(=O)N(N=C(C)C)C(=O)C12 (configuration not stated) | > 100 | > 100 | > 100 | > 100 | > 100 | > 100 | > 100 |  |  | 
2 | Nc1c(C(=O)O)c2ccc([N+](=O)[O-])cc2c(=O)n1-c1nc2ccccc2s1 | > 100 | > 100 | > 100 |  | > 100 | > 100 | > 100 | > 100 | > 100 | 
3 | COc1ccc2oc(=O)c(-c3cc4c(c(C)n3)c(=O)oc3ccc(OC)cc34)cc2c1 | > 100 |  | > 100 | > 100 | > 100 | > 100 | > 100 | > 100 | > 100 | 
4 | O=[N+]([O-])/C=C/c1cc(Cl)c(/C=C/[N+](=O)[O-])cc1Cl | 31.8 |  | 25 |  |  | 6.38 |  |  | 12.8 | 
5 | CCc1c(O)nc(Nc2nc3ccccc3[nH]2)[nH]c1=O | > 100 | > 100 | > 100 | > 100 | > 100 |  | > 100 | > 100 | > 100 | 
6 | O=C(Nc1cccc2ccccc12)c1cc2ccccc2oc1=O | 49.4 | > 100 |  | 81.8 | > 100 | > 100 | > 100 |  | > 100 | 
7 | COc1cccc(/C=N/[N-]C(N)=O)c1[O-].[Cu+2].[OH3+] | 44.3 | 32.6 | 28.9 | 33.5 | 27.2 |  | 19.7 |  | 31.3 | 7.38
8 | Cc1nc(C(=Nc2ccc(Br)cc2)Nn2cnnc2)no1 | > 100 | > 100 | > 100 |  |  | > 100 | > 100 | > 100 | > 100 | 
9 | CC(C)(NO)/C(=N\O)c1ccccc1 | > 10 | > 10 | > 10 |  | > 10 | > 10 | > 10 | > 10 | > 10 | 
10 | COc1ccc(C(=CCC(C)C2CCC3[C@@H]4C(OC(C)=O)CC5CC(OC(C)=O)CC[C@]5(C)C4CC(OC(C)=O)[C@]23C)c2ccc(OC)cc2)cc1 (some centres not stated) | > 100 | > 100 | > 100 | > 100 | > 100 | > 100 | > 100 | > 100 |  | 
11 | COc1ccc(O[C@H](CO)C[C@@H]2COC(C)(C)O2)cc1 | > 100 | > 100 | > 100 | > 100 | > 100 |  | > 100 | > 100 | > 100 | 
12 | COc1cc(C2c3cc4c(cc3[C@@H](Nc3ccc(F)cc3)C3COC[C@H]23)OCO4)cc(OC)c1O (some centres not stated) | > 25 | 14.1 | 5.32 | 3.49 | 23.1 | > 25 | 18 | > 25 |  | 
13 | CC1(C)N=C(/C(Cl)=[N+](/[O-])C(=O)c2ccc(Cl)cc2)C(C)(C)N1O | > 100 | 42.5 | > 100 | 44 | 47 | 95.1 | 55.5 |  | > 100 | 

Source: PubChem BioAssay (NCI)
